According to publication PMC3319116 (Journal of Medicinal Chemistry, 2012):

Assays:
MDCK-mdr1 cells = assay: MDCK-mdr1 permeability assay; settings: apical to basal, 3.16 μM, 1 hr, 37°C, pH 7.4; % transported
CB1 [1] = target: T1, CB1 (Homo sapiens, UniProt P21554); assay: CB1 Gαq16-coupled intracellular calcium mobilization assay in CHO-K1 cells; format: cell-based
CB1 [2] = target: T1, CB1; assay: Radioligand displacement of [3H]CP55940 at CB1; format: binding; settings: Ki vs CP55940

T1 sequence (P21554 whole entry): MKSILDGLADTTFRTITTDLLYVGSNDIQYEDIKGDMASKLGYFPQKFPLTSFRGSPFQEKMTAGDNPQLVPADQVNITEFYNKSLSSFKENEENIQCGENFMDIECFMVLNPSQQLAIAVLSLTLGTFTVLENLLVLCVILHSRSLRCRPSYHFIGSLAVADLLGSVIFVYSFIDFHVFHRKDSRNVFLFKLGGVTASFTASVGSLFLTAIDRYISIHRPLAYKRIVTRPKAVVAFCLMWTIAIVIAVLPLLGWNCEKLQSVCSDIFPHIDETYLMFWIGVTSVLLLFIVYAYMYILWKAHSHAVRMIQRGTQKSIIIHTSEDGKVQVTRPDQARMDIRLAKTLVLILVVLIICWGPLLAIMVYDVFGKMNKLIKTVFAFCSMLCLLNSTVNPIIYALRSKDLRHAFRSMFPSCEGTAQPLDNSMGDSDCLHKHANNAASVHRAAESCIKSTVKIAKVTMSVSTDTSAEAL

SMILES | MDCK-mdr1 permeability A to B (MDCK-mdr1 cells) [%] | Kb (CB1 [1]) [nM] | potency relative to sulfonamide 7 (CB1 [1]; Ke CB1, fold more potent than 7) [fold] | selectivity for CB1 versus CB2 (CB1 [2])
Cc1c(C(=O)NCC2CCC(CNS(C)(=O)=O)CC2)nn(-c2ccc(Cl)cc2Cl)c1-c1ccc(Cl)cc1 (centres unmarked) [Compound 7] | <1 | – | – | –
Cc1c(C(=O)NCC2CCC(CNS(N)(=O)=O)CC2)nn(-c2ccc(Cl)cc2Cl)c1-c1ccc(Cl)cc1 (centres unmarked) [Compound 8] | <1 | – | – | –
Cc1c(C(=O)N[C@@H]2CCCN(S(C)(=O)=O)C2)nn(-c2ccc(Cl)cc2Cl)c1-c1ccc(Cl)cc1 [Compound 20d, 5-(4-Chlorophenyl)-1-(2,4-dichlorophenyl)-N-[(3R)-1-methanesulfonylpiperidin-3-yl]-4-methyl-1H-pyrazole-3-carboxamide] | – | 7 | 16 | over 100 fold
